Measurements taken from patent US20060068118A1, “Silicon-containing treatments for solid substrates” (priority 2003, published 2006).

Assays:
test microbes = assay: Dow Corning Test Method 0923 Dynamic Shake Flask Test (ASTM E-2149-01), Table I; format: cell-based; conditions: shingle, vs untreated controls
Description: (§1) The BPB test is a standardized test known as the Bromphenol Blue Extraction Method having a Dow Corning Corporate test number 0824, except that the test was modified in the following manner. The chlorinated solvent has been eliminated and the wavelength is 595 nm. Further, the Dow Corning® Q25211 has been substituted for the Triton RTM.X100 wetting agent of the test. What is measured is the diminution of the BPB absorbance at 595 nm relative to the BPB standard solution and it is reported in percent extraction. Antimicrobial efficacy was determined using the Dow Corning Test Method 0923 Dynamic Shake Flask Test (ASTM E-2149-01) unless otherwise stated.
Application technologies were compared for a shingle substrate at constant add levels and room temperature conditions. Samples were prepared as follows and compared. The Samples included: antimicrobial agent (AA) by itself (Sample 1) and the (AA) in 0.1M Na2C2O4 (Sample 2) with a polyoxyethylene nonylphenol (the surfactant). Sample 1 treated with Methyl Siliconate is Sample 3, Sample 1 treated with sodium silicate is Sample 4 and sample 1 treated with Everwood is Sample 5. The Samples were handled as in example 1 and tested.

E. Coli = assay: Dynamic Shake Flask Test, % E. Coli reduction; format: cell-based; conditions: Example 4, AA 1.25 mg/inch^2, vs untreated control substrates
Description: as §1
Studies were carried out to determine if this invention was applicable to various substrates in the building products area, such as Oriented Strand Board (OSB), vinyl siding, polymer wood composite decking and dimensional lumber. The application process was: samples were cut to 2 inches by 2 inches and weighed prior to application. A hand pump mist sprayer was used to treat the substrate. The applications of the silicate/siliconate and (AA) were kept to a minimum of less than 3 seconds application timne. Treated samples were next rinsed with copious cold water to remove any excess treatment material. There was no heating or other curing or drying of the samples.

[1] = Reaction of hydrolyzed silanes with treatment enhancers, solution appearance; format: physicochemical

For `CCCCCCCCCCCCCCCCCC[N+](C)(C)CCC[Si](OC)(OC)OC.[Cl-]` [Sample 1, N,N-dimethyl-N-Octadecyl-3-(trimethoxysilyl)propanaminium chloride], the “% Reduction” value (test microbes; AA Actives 0.50%) was 0%, the “% Reduction” value (test microbes; AA Actives 1%) was 0% and the “OSB % Red. ext. (% E. Coli Reduction)” value (E. Coli; OSB) was 31%. For the same compound, the “decking % Red. ext. (% E. Coli Reduction)” value (E. Coli; decking) was 0%, the “shingle % Red. ext. (% E. Coli Reduction)” value (E. Coli; shingle) was 11% and the “siding % Red. ext. (% E. Coli Reduction)” value (E. Coli; siding) was 0%. For the same compound, the “wood % Red. ext. (% E. Coli Reduction)” value (E. Coli; wood) was 21%.
In the case of `CCO[Si](CC(C)C)(OCC)OCC` [Sample Z-6043, i-butyltriethoxysilane], the “Appearance (at Time Min.)” value [1] is reported as “clear” and the “Appearance (at Time hours)” value [1] is reported as “clear”.
In the case of potassium methyl siliconate [DC-777], the appearance on standing ([1]; treatment enhancer alone, 1.5% actives level, after 4 days of standing) is reported as “white precipitate”.
